Data: ChEMBL document CHEMBL3044740, “Syntheses and evaluation of 2,5-disubstituted 4-thiazolidinone analogues as antimicrobial agents” (2012)
Activity calls are given as the source filed them. The calls are words filed in the database; no cut-off is given here.

Columns and labels:
Type in all cases: functional
[1] = tested on: Candida albicans; assay: Antifungal activity against Candida albicans MTCC 227 at 100 ug/ml by cup-plate method; details: for zone of inhibition at 100 µg/mL: read-out: DIZ
[2] = tested on: Candida albicans; assay: Antifungal activity against Candida albicans MTCC 227 at 300 ug/ml by cup-plate method
[3] = tested on: Candida albicans; assay: Antifungal activity against Candida albicans MTCC 227 at 200 ug/ml by cup-plate method
[4] = tested on: Escherichia coli; assay: Antibacterial activity against Escherichia coli MTCC 739 at 300 ug/ml by cup-plate method; details: for zone of inhibition at 300 µg/mL: read-out: DIZ
[5] = tested on: Escherichia coli; assay: Antibacterial activity against Escherichia coli MTCC 739 at 200 ug/ml by cup-plate method; details: for zone of inhibition at 200 µg/mL: read-out: DIZ
[6] = tested on: Escherichia coli; assay: Antibacterial activity against Escherichia coli MTCC 739 at 100 ug/ml by cup-plate method; details: for zone of inhibition at 100 µg/mL: read-out: DIZ
[7] = tested on: Pseudomonas aeruginosa; assay: Antibacterial activity against Pseudomonas aeruginosa MTCC 2453 at 300 ug/ml by cup-plate method; details: for zone of inhibition at 300 µg/mL: read-out: DIZ
[8] = tested on: Pseudomonas aeruginosa; assay: Antibacterial activity against Pseudomonas aeruginosa MTCC 2453 at 200 ug/ml by cup-plate method; details: for zone of inhibition at 200 µg/mL: read-out: DIZ
[9] = tested on: Pseudomonas aeruginosa; assay: Antibacterial activity against Pseudomonas aeruginosa MTCC 2453 at 100 ug/ml by cup-plate method; details: for zone of inhibition at 100 µg/mL: read-out: DIZ
[10] = tested on: Bacillus subtilis; assay: Antibacterial activity against Bacillus subtilis MTCC 121 at 300 ug/ml by cup plate method; details: read-out: DIZ
[11] = tested on: Bacillus subtilis; assay: Antibacterial activity against Bacillus subtilis MTCC 121 at 200 ug/ml by cup plate method; details: read-out: DIZ
[12] = tested on: Bacillus subtilis; assay: Antibacterial activity against Bacillus subtilis MTCC 121 at 100 ug/ml by cup plate method; details: read-out: DIZ
[13] = tested on: Staphylococcus aureus; assay: Antibacterial activity against Staphylococcus aureus MTCC 96 at 300 ug/ml by cup-plate method; details: read-out: DIZ
[14] = tested on: Staphylococcus aureus; assay: Antibacterial activity against Staphylococcus aureus MTCC 96 at 200 ug/ml by cup-plate method; details: read-out: DIZ
[15] = tested on: Staphylococcus aureus; assay: Antibacterial activity against Staphylococcus aureus MTCC 96 at 100 ug/ml by cup-plate method; details: read-out: DIZ
[16] = tested on: Candida albicans; assay: Antifungal activity against Candida albicans MTCC 227 at 50 ug/ml by cup-plate method
[17] = tested on: Pseudomonas aeruginosa; assay: Antibacterial activity against Pseudomonas aeruginosa MTCC 2453 at 50 ug/ml by cup-plate method; details: for zone of inhibition at 50 µg/mL: read-out: DIZ
[18] = tested on: Escherichia coli; assay: Antibacterial activity against Escherichia coli MTCC 739 at 50 ug/ml by cup-plate method; details: for zone of inhibition at 50 µg/mL: read-out: DIZ
[19] = tested on: Bacillus subtilis; assay: Antibacterial activity against Bacillus subtilis MTCC 121 at 50 ug/ml by cup plate method; details: read-out: DIZ
[20] = tested on: Staphylococcus aureus; assay: Antibacterial activity against Staphylococcus aureus MTCC 96 at 50 ug/ml by cup-plate method; details: read-out: DIZ

| Compound | diameter of the inhibition zone (DIZ) [2] | diameter of the inhibition zone (DIZ) [3] | zone of inhibition at 300 µg/mL [4] | diameter of the inhibition zone (DIZ) [1] | zone of inhibition at 200 µg/mL [5] | zone of inhibition at 100 µg/mL [6] | zone of inhibition at 300 µg/mL [7] | zone of inhibition at 200 µg/mL [8] | zone of inhibition at 100 µg/mL [9] | zone of inhibition at 300 µg/mL [10] | zone of inhibition at 200 µg/mL [11] | zone of inhibition at 100 µg/mL [12] | zone of inhibition at 300 µg/mL [13] | zone of inhibition at 200 µg/mL [14] | zone of inhibition at 100 µg/mL [15] | diameter of the inhibition zone (DIZ) [16] | zone of inhibition at 50 µg/mL [17] | zone of inhibition at 50 µg/mL [18] | zone of inhibition at 50 µg/mL [19] | zone of inhibition at 50 µg/mL [20] | also measured |
| --- | --- | --- | --- | --- | --- | --- | --- | --- | --- | --- | --- | --- | --- | --- | --- | --- | --- | --- | --- | --- | --- |
| OC(Cn1cncn1)(Cn1cncn1)c1ccc(F)cc1F [FLUCONAZOLE] | – | – | – | – | – | – | – | – | – | – | – | – | – | – | – | – | – | – | – | – | zone of inhibition at 100 µg/mL [1]: 35 mm |
| O=C1N/C(=N\c2ccc([N+](=O)[O-])cc2)S/C1=C\c1ccc(Cl)cc1 | inactive | inactive | 18 mm | inactive | 16 mm | 16 mm | 14 mm | 13 mm | 12 mm | 18 mm | 17 mm | 16 mm | 17 mm | 15 mm | 14 mm | inactive | 11 mm | 15 mm | 15 mm | 13 mm | – |
| O=C1N/C(=N\c2ccccc2[N+](=O)[O-])S/C1=C\c1ccc(Cl)cc1 | inactive | inactive | 11 mm | inactive | 11 mm | 11 mm | 18 mm | 17 mm | 15 mm | 16 mm | 15 mm | 14 mm | 18 mm | 16 mm | 15 mm | inactive | 14 mm | 10 mm | 13 mm | 14 mm | – |
| O=C(O)c1cn(C2CC2)c2cc(N3CCNCC3)c(F)cc2c1=O [CIPROFLOXACIN] | – | – | – | inactive | – | 28 mm | – | – | 18 mm | – | – | 22 mm | – | – | 19 mm | – | – | – | – | – | – |
| O=C1N/C(=N\c2ccccc2[N+](=O)[O-])S/C1=C\c1ccccc1 | – | – | 12 mm | – | 10 mm | 8 mm | 10 mm | 8 mm | 6 mm | 13 mm | 11 mm | 10 mm | 15 mm | 12 mm | 11 mm | – | 6 mm | 7 mm | 8 mm | 10 mm | zone of inhibition at 300 µg/mL ([2]; read-out: DIZ): 18 mm; zone of inhibition at 200 µg/mL ([3]; read-out: DIZ): 13 mm; zone of inhibition at 100 µg/mL [1]: 11 mm; zone of inhibition at 50 µg/mL ([16]; read-out: DIZ): 10 mm |
| COc1cc(/C=C2\S/C(=N/c3ccccc3[N+](=O)[O-])NC2=O)ccc1O | inactive | inactive | – | inactive | – | – | – | – | – | 12 mm | 10 mm | 8 mm | 8 mm | 8 mm | 8 mm | inactive | – | – | 8 mm | 7 mm | diameter of the inhibition zone (DIZ) [4]: inactive; diameter of the inhibition zone (DIZ) [5]: inactive; diameter of the inhibition zone (DIZ) [6]: inactive; diameter of the inhibition zone (DIZ) [7]: inactive; diameter of the inhibition zone (DIZ) [8]: inactive; diameter of the inhibition zone (DIZ) [9]: inactive; diameter of the inhibition zone (DIZ) [17]: inactive; diameter of the inhibition zone (DIZ) [18]: inactive |
